Test results published in patent US7759510B2, “Platinum complexes and methods of use” (University of South Florida, priority 2003, dated 2010).
Where two headings read alike, the source gives them in different places.

Tested on: A549 cells
Assay: MTT assay, percent survival of A549 cells
Assay type: cell-based
Procedure: 1. Prepare a suspension of A549 cells at 2×10^5 cells per mL in supplemented DMEM/F12 growth medium.
2. Plate 2×10^4 cells per well in a 96 well cell culture plate by adding 100 μL of stock suspension to each well.
3. For each platinum compound (already in solution), prepare a readily usable stock solution in DMEM/F12 medium.
4. For each compound generate triplicate trials of 0, 10, 20, 30, 40, 50, 60, and 70 μM concentration. This is achieved in situ by adding appropriate volumes of stock solution to each well along with the volume of untreated medium necessary to generate the desired concentration in a final volume of 200 μL.
5. Gently agitate plates to mix contents. Incubate at 37° C., 7% CO2 for 45 hours.
6. Add 20 μL of 5 mg/mL MTT solution (in PBS) to each well.
7. Gently agitate plates to mix contents and incubate an additional 3 hours to allow product development.
8. Remove plates from incubator and agitate to cause settling of formazan product.
9. Aspirate out liquid contents of each well using needle and syringe and discard.
10. Add 200 μL DMSO to each well to dissolve formazan product.
11. Agitate plates until all of the formazan product is in solution and no purple crystals remain on the bottom surface of the wells.
12. Read the absorbance of each well at […] using Varian software for Cary 50 UV-vis Spectrophotometer with fiber optic probe accessory.
(§1) MTT assays are used for the quantitative determination of cellular proliferation and activation and for the quantitation of in vitro tumor cell sensitivity to anti-cancer compounds. The assay is based on the cleavage of the yellow tetrazolium salt MTT into purple colored formazan by metabolically active cells. Solubilized formazan product can be photometrically quantitated using an ELISA plate reader. A decrease in the number of living cells results in a decrease in total metabolic activity which leads to a decrease in color formation. Platinum complexes of the present invention were tested in MTT assays using A549 cells to determine anti-cancer cell activity. […] FIGS. 1, 2, and 4 show percent survival versus platinum complex concentration in graphical form.
as §1, with “FIGS. 8, 9,” for “FIGS. 1, 2,”, “and 11” for “and 4”

## NC(=O)c1ccc(N)nc1 [6-Aminonicotinamide]
Homo sapiens, A549, read-out: Calculated IC 50 (uM concentration)
  IC50: 53.1 µM
Table 6, A549, 10 μM
  Average Absorbance: 2.3742
  Percent Survival: 100.5548%
Table 6, A549, 20 μM
  Average Absorbance: 2.4321
  Percent Survival: 103.0071%
Table 6, A549, 30 μM
  Average Absorbance: 2.2814
  Percent Survival: 96.6245%
Table 6, A549, 40 μM
  Average Absorbance: 1.7213
  Percent Survival: 72.9025%
Table 6, A549, 50 μM
  Average Absorbance: 0.8618
  Percent Survival: 36.4999%
Table 6, A549, 60 μM
  Average Absorbance: 0.7739
  Percent Survival: 32.7771%
Table 6, A549, 70 μM
  Average Absorbance: 0.8536
  Percent Survival: 36.1526%
Table 8, A549, 10 μM
  Average Absorbance: 2.4711
  Percent Survival: 101.1544%
Table 8, A549, 20 μM
  Average Absorbance: 2.4672
  Percent Survival: 100.9947%
Table 8, A549, 30 μM
  Average Absorbance: 1.9896
  Percent Survival: 81.4442%
Table 8, A549, 40 μM
  Average Absorbance: 1.0963
  Percent Survival: 44.8770%
Table 8, A549, 50 μM
  Average Absorbance: 0.6485
  Percent Survival: 26.5463%
Table 8, A549, 60 μM
  Average Absorbance: 0.5811
  Percent Survival: 23.7873%
Table 8, A549, 70 μM
  Average Absorbance: 0.6294
  Percent Survival: 25.7645%

## CC(C)(C(=O)O)C(O)(C(=O)O)C(C)(C)C(=O)[O][Pt]([NH2])([NH2])([Cl])([Cl])[N+](=O)[O-] (stereo not shown) [CPA-31]
Table 1, A549, 10 μM
  Average Absorbance: 2.4274
  Percent Survival: 102.8080%
Table 1, A549, 20 μM
  Average Absorbance: 2.3495
  Percent Survival: 99.5087%
Table 1, A549, 30 μM
  Average Absorbance: 2.3778
  Percent Survival: 100.7073%
Table 2, A549, extrapolated from incomplete data (10-40 uM; CPA-31 10-30 μM), outside the measured range, read-out: Calculated IC 50 (uM concentration)
  IC50: 506 µM
Table 3, A549, 10 μM
  Average Absorbance: 2.5294
  Percent Survival: 103.5409%
Table 3, A549, 20 μM
  Average Absorbance: 2.3875
  Percent Survival: 97.7322%
Table 3, A549, 30 μM
  Average Absorbance: 1.7978
  Percent Survival: 73.5929%
Table 3, A549, 40 μM
  Average Absorbance: 0.8196
  Percent Survival: 33.5503%
Table 3, A549, 50 μM
  Average Absorbance: 0.6049
  Percent Survival: 24.7616%
Table 3, A549, 60 μM
  Average Absorbance: 0.6067
  Percent Survival: 24.8352%
Table 3, A549, 70 μM
  Average Absorbance: 0.6228
  Percent Survival: 25.4943%

## N.N.[Cl][Pt][Cl] [Cis-Pt, Cis-diammineoplatinum(II) dichloride, reference compound]
Table 1, A549, 10 μM
  Average Absorbance: 2.3196
  Percent Survival: 98.2423%
Table 1, A549, 20 μM
  Average Absorbance: 2.3228
  Percent Survival: 98.3779%
Table 1, A549, 30 μM
  Average Absorbance: 2.3526
  Percent Survival: 99.6400%
Table 1, A549, 40 μM
  Average Absorbance: 2.1315
  Percent Survival: 90.2757%
Table 1, A549, 50 μM
  Average Absorbance: 1.8447
  Percent Survival: 78.1288%
Table 1, A549, 60 μM
  Average Absorbance: 1.1039
  Percent Survival: 46.7536%
Table 1, A549, 70 μM
  Average Absorbance: 0.7118
  Percent Survival: 30.1470%
Table 2, A549, linear trend from percent survival vs. concentration data of Table 1, read-out: Calculated IC 50 (uM concentration)
  IC50: 63.3 µM
Table 3, A549, 10 μM
  Average Absorbance: 2.4665
  Percent Survival: 100.9661%
Table 3, A549, 20 μM
  Average Absorbance: 2.4556
  Percent Survival: 100.5199%
Table 3, A549, 30 μM
  Average Absorbance: 2.2686
  Percent Survival: 92.8650%
Table 3, A549, 40 μM
  Average Absorbance: 1.7575
  Percent Survival: 71.9432%
Table 3, A549, 50 μM
  Average Absorbance: 1.2828
  Percent Survival: 52.5114%
Table 3, A549, 60 μM
  Average Absorbance: 0.7971
  Percent Survival: 32.6293%
Table 3, A549, 70 μM
  Average Absorbance: 0.6718
  Percent Survival: 27.5001%
Table 4, A549, 10 μM
  Average Absorbance: 0.5299
  Percent Survival: 83.1%
Table 4, A549, 20 μM
  Average Absorbance: 0.6575
  Percent Survival: 103.1%
Table 4, A549, 30 μM
  Average Absorbance: 0.497
  Percent Survival: 77.95%
Table 4, A549, 40 μM
  Average Absorbance: 0.4763
  Percent Survival: 74.69%
Table 4, A549, 50 μM
  Average Absorbance: 0.3644
  Percent Survival: 57.14%
Table 4, A549, 60 μM
  Average Absorbance: 0.2814
  Percent Survival: 44.13%
Table 4, A549, 70 μM
  Average Absorbance: 0.1854
  Percent Survival: 29.07%
Table 6, A549, 10 μM
  Average Absorbance: 2.3196
  Percent Survival: 98.2423%
Table 6, A549, 20 μM
  Average Absorbance: 2.3228
  Percent Survival: 98.3779%
Table 6, A549, 30 μM
  Average Absorbance: 2.3526
  Percent Survival: 99.6400%
Table 6, A549, 40 μM
  Average Absorbance: 2.1315
  Percent Survival: 90.2757%
Table 6, A549, 50 μM
  Average Absorbance: 1.8447
  Percent Survival: 78.1288%
Table 6, A549, 60 μM
  Average Absorbance: 1.1039
  Percent Survival: 46.7536%
Table 6, A549, 70 μM
  Average Absorbance: 0.7118
  Percent Survival: 30.1470%
Table 8, A549, 10 μM
  Average Absorbance: 2.4665
  Percent Survival: 100.9661%
Table 8, A549, 20 μM
  Average Absorbance: 2.4556
  Percent Survival: 100.5199%
Table 8, A549, 30 μM
  Average Absorbance: 2.2686
  Percent Survival: 92.8650%
Table 8, A549, 40 μM
  Average Absorbance: 1.7575
  Percent Survival: 71.9432%
Table 8, A549, 50 μM
  Average Absorbance: 1.2828
  Percent Survival: 52.5114%
Table 8, A549, 60 μM
  Average Absorbance: 0.7971
  Percent Survival: 32.6293%
Table 8, A549, 70 μM
  Average Absorbance: 0.6718
  Percent Survival: 27.5001%
Table 9, A549, 10 μM
  Average Absorbance: 0.5299
  Percent Survival: 83.1%
Table 9, A549, 20 μM
  Average Absorbance: 0.6575
  Percent Survival: 103.1096%
Table 9, A549, 30 μM
  Average Absorbance: 0.497
  Percent Survival: 77.95%
Table 9, A549, 40 μM
  Average Absorbance: 0.4763
  Percent Survival: 74.69%
Table 9, A549, 50 μM
  Average Absorbance: 0.3644
  Percent Survival: 57.14%
Table 9, A549, 60 μM
  Average Absorbance: 0.2814
  Percent Survival: 44.13%
Table 9, A549, 70 μM
  Average Absorbance: 0.1854
  Percent Survival: 29.07%

## CO[C@H]1O[C@H](CO)[C@@H](O)[C@H](O)[C@@H]1O [Methyl alpha-D-Mannopyranoside]
Homo sapiens, Table 7, A549, linear trend from percent survival vs. concentration data, read-out: Calculated IC 50 (uM concentration)
  IC50: 50.1 µM
Table 6, A549, 10 μM
  Average Absorbance: 2.4582
  Percent Survival: 104.1125%
Table 6, A549, 20 μM
  Average Absorbance: 2.4610
  Percent Survival: 104.2311%
Table 6, A549, 30 μM
  Average Absorbance: 2.1544
  Percent Survival: 91.2456%
Table 6, A549, 40 μM
  Average Absorbance: 1.1005
  Percent Survival: 46.6096%
Table 6, A549, 50 μM
  Average Absorbance: 0.6631
  Percent Survival: 28.0844%
Table 6, A549, 60 μM
  Average Absorbance: 0.9420
  Percent Survival: 39.8967%
Table 6, A549, 70 μM
  Average Absorbance: 0.8479
  Percent Survival: 35.9112%
Table 8, A549, 10 μM
  Average Absorbance: 2.6117
  Percent Survival: 106.9098%
Table 8, A549, 20 μM
  Average Absorbance: 2.4353
  Percent Survival: 99.6889%
Table 8, A549, 30 μM
  Average Absorbance: 1.7315
  Percent Survival: 70.8789%
Table 8, A549, 40 μM
  Average Absorbance: 0.6173
  Percent Survival: 25.2691%
Table 8, A549, 50 μM
  Average Absorbance: 0.4370
  Percent Survival: 17.8886%
Table 8, A549, 60 μM
  Average Absorbance: 0.5017
  Percent Survival: 20.5371%
Table 8, A549, 70 μM
  Average Absorbance: 0.5339
  Percent Survival: 21.8552%

## CC(=O)N[C@H]1C(O)O[C@H](CO)[C@@H](O)[C@@H]1O (stereo partly shown) [N-acetyl glucosamine]
Table 9, A549, 10 μM
  Average Absorbance: 0.6179
  Percent Survival: 96.89%
Table 9, A549, 20 μM
  Average Absorbance: 0.378
  Percent Survival: 59.27%
Table 9, A549, 30 μM
  Average Absorbance: 0.1735
  Percent Survival: 27.21%
Table 9, A549, 40 μM
  Average Absorbance: 0.02397
  Percent Survival: 3.758%
Table 9, A549, 50 μM
  Average Absorbance: 0.0397
  Percent Survival: 6.226%
Table 9, A549, 60 μM
  Average Absorbance: 0.05523
  Percent Survival: 8.662%
Table 9, A549, 70 μM
  Average Absorbance: 0.01897
  Percent Survival: 2.974%
